Source: ChEMBL document CHEMBL1938312, “Design and combinatorial synthesis of a novel kinase-focused library using click chemistry-based fragment assembly” (Bioorg Med Chem Lett, 2012)

Columns and labels:
[1] = biological target: T1, Receptor-type tyrosine-protein kinase FLT3 (Homo sapiens, UniProt P36888); experiment: Inhibition of FLT3 by colorimetric analysis
T1 sequence (P36888 whole entry): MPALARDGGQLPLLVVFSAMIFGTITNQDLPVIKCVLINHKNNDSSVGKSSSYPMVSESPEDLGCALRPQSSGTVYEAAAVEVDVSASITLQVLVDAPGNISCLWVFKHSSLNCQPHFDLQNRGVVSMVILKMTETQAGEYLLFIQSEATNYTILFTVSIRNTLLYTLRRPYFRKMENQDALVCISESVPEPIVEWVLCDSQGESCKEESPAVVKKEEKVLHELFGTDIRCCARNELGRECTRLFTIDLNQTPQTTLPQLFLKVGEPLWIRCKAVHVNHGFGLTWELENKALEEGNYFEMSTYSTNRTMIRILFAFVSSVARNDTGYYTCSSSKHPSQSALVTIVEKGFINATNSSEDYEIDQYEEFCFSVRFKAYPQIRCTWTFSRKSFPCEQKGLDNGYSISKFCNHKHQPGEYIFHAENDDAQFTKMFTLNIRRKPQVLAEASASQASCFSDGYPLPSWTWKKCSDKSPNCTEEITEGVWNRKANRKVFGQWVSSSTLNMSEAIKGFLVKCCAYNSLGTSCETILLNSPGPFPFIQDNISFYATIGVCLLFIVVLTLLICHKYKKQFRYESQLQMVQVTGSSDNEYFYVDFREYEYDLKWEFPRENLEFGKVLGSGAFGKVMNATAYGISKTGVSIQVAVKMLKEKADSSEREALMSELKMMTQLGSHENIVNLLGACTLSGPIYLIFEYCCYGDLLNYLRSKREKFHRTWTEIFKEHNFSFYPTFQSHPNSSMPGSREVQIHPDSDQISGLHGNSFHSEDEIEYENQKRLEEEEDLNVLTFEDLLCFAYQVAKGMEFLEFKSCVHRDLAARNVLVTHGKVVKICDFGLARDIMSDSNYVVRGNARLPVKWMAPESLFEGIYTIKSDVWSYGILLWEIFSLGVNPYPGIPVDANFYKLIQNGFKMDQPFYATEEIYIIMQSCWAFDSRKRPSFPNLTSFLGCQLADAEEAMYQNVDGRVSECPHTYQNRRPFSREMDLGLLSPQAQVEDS

[2] = biological target: Glycogen synthase kinase-3 beta (Homo sapiens, UniProt P49841); experiment: Inhibition of GSK3-beta by colorimetric analysis
Glycogen synthase kinase-3 beta, sequence (P49841 whole entry): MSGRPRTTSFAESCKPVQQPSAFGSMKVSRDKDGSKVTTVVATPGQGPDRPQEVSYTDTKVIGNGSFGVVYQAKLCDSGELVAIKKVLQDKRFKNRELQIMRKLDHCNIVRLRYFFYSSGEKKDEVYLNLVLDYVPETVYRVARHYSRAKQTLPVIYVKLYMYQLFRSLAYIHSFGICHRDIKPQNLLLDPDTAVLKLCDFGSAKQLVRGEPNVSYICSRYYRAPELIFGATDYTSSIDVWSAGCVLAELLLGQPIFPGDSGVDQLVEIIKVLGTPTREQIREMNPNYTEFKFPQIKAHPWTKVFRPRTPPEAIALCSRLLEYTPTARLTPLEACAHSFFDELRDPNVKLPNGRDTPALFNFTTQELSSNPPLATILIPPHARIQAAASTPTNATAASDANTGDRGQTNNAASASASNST

Row | SMILES | IC50 [1] | IC50 [2]
1 | c1cc(-c2cnnn2C2C3CC4CC(C3)CC2C4)ccn1 (stereo unspecified) | 4.8 µM | 2600 nM
2 | c1ccc(-c2cnnn2C2C3CC4CC(C3)CC2C4)nc1 (stereo unspecified) | 10.2 µM | –
3 | c1ccc(Cn2cc(-c3ccc4nccnc4c3)nn2)cc1 | 6.3 µM | 9500 nM
4 | Cc1ccccc1-n1nncc1-c1ccncc1 | 6.2 µM | 6300 nM
5 | c1cnc2cc(-c3cn(CCN4CCOCC4)nn3)ccc2n1 | 10.9 µM | –
6 | Cc1ccc(-n2nncc2-c2ccncc2)cc1 | 2.3 µM | –
7 | c1cnc2cc(-c3cnnn3C3C4CC5CC(C4)CC3C5)ccc2n1 (stereo unspecified) | 3.1 µM | 2800 nM
8 | c1cnc2cc(-c3cn(C4C5CC6CC(C5)CC4C6)nn3)ccc2n1 (stereo unspecified) | 9.7 µM | –
9 | Cc1ccccc1-n1cc(-c2ccccn2)nn1 | 9.3 µM | 490 nM
10 | Cc1ccc(-n2cc(-c3ccccn3)nn2)cc1 | 1.1 µM | > 30000 nM
11 | Fc1ccc(-n2cc(-c3ccc4nccnc4c3)nn2)cc1 | 12.4 µM | –
12 | Clc1ccc(-n2cc(-c3ccccn3)nn2)cc1 | 6.3 µM | –
13 | Fc1ccc(-n2nncc2-c2ccncc2)cc1 | 1.4 µM | –
14 | Cc1ccc(-n2cc(-c3ccncc3)nn2)cc1 | 6.6 µM | –
15 | Fc1ccc(-n2cc(-c3ccccn3)nn2)cc1 | 6.7 µM | –
